Each block holds one molecule with its values, some of them ahead of it.
How the values were obtained:
Human Th2 cells = assay: Apoptosis challenge test (Annexin V-PE/PI flow cytometry); type: cell-based; details: for IC50: Homo sapiens, 100 nM PGD2, absence of IL-2, 16 hrs, read-out: IC50 to the rescuing function of PGD2
Protocol: Human Th2 cells were treated with 50 U/ml IL-2 or various concentrations of PGD2 in the absence of IL-2 for 16 hrs. The cells were stained with Annexin V-PE/PI and then analysed by FACSArray flow cytometer.
Human Th2 cells were treated in the absence of IL-2 with a medium containing 100 nM PGD2 and various concentrations of CRTH2 antagonistic compounds (Compounds 1, 2, 3, 4 and 5) for 16 hrs. The cells were stained with Annexin V-PE/PI and then analysed by FACSArray flow cytometer.

[1] = tested on: human subjects with allergic rhinitis; assay: Vienna Challenge Chamber study (allergen challenge, symptom scores); type: in vivo; details: for reduction in total nasal symptom score compared to placebo / reduction in total eye symptom score compared to placebo: oral, both patient groups combined; for reduction in total nasal symptom score compared to placebo: FIG. 1A; for reduction in total eye symptom score compared to placebo: FIG. 1B
Description: The study was a randomised, double blind, placebo controlled, two way crossover evaluation of Compound 1, given orally for eight days. There was a screening period of one week and a washout period of three weeks between the two treatment periods. There was a follow up one week after the last dose of study drug. The group of patients who received the study drug for the first treatment period and placebo for the second was designated group A, while the group of patients who received placebo for the first treatment period and the study drug for the second treatment period was designated group B.
The subjects underwent a complete screening assessment to determine a baseline response to allergens. This screening assessment took place one week prior to the start of dosing. • Subjects commenced dosing with Compound 1 or placebo on Day 1 (visit 2 or visit 5) of each treatment period of the study. […] Subjects took each dose (2 capsules in the morning and 2 capsules in the evening) as soon as they had finished breakfast and their evening meal respectively.
Subjects reported back to the clinic on Day 2 of each treatment period for a 6 hour allergen challenge. The following measurements were obtained: • Total nasal symptom score (TNSS) (obstruction, rhinorrhoea, itch, sneeze) with each symptom scored on a categorical scale from 0 to 3 pre-challenge, every 15 mins from 0 to 6 h post-start of challenge • Eye symptom score (watery eyes, itchy eyes, red eyes) with each symptom scored on a categorical scale from 0 to 3 pre-challenge, every 15 mins from 0 to 6 h post-start of challenge • Other symptoms (cough, itchy throat, itchy ears) with each symptom scored on a categorical scale from 0 to 3 pre-challenge and every 15 mins from 0 to 6 h post-start of challenge
Subjects reported back to the clinic on Day 8 of each treatment period for a 6 hour allergen challenge and the measurements obtained on Day 2 were repeated.
A final follow-up visit was conducted one after the last dose of test article in Treatment Period 2.

serum IgE = assay: Measurement of serum IgE in mild to moderate asthmatics; type: in vivo, human
Description: The effect of the CRTH2 antagonist Compound 1 compared to placebo was studied in mild to moderate asthmatics with an FEV1 of 60-80% of predicted and requiring only short acting inhaled β2-adrenergic agonists for symptomatic control.
Blood was collected for measurement of serum IgE at the beginning of the study and after 4 weeks of dosing with Compound 1 or placebo. Total serum IgE was quantified using fluorescent immunoassay using the Phadia CAP system.

CRTH2 receptor = molecular target: T1, CRTH2 receptor (Homo sapiens, UniProt Q9Y5Y4); assay: Calcium mobilisation assay in CHO/CRTH2 cells; type: cell-based; details: n=3, read-out: EC50, increase in intracellular Ca2+ mobilisation
T1 construct: expressed in transfected cells; host or cells: Chinese Hamster Ovary (CHO) cells
T1 sequence (Q9Y5Y4 1-395): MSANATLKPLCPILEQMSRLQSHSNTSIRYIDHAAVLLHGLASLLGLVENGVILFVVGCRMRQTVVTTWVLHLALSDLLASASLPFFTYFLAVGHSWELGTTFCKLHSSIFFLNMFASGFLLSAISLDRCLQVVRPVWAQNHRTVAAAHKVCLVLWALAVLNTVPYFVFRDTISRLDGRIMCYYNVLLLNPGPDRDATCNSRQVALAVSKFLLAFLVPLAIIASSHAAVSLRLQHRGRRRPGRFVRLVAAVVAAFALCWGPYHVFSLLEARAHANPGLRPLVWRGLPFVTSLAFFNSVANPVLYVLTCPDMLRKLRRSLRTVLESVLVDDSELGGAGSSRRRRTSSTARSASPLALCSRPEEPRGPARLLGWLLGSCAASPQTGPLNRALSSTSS
Protocol: Chinese Hamster Ovary cells were transfected with CRTH2 receptors (CHO/CRTH2) and were maintained in culture in a humidified atmosphere at 37° C. (5% CO2) in Minimum Essential Medium (MEM) supplemented with 10% foetal bovine serum, 2 mM glutamine, and 1 mg ml^−1 active G418. The cells were passaged every 2-3 days. For radioligand binding assay, cells were prepared in triple-layer flasks or in 175 cm^2 square flasks (for membrane preparation). For calcium mobilisation assay, cells were grown in a 96 well plate 24 h prior to the assay at a density of 80,000 cells per well.
Cells were seeded onto poly-D-lysine coated 96-well plates at a density of 80,000 cells per well and incubated at 37° C. overnight to allow the cells to adhere. Cells were washed twice with HBSS and incubated for 1 h at 37° C. in 100 μl HBSS and 100 μl calcium-3-dye (Molecular Devices), supplemented with 4 mM probenecid. Changes in fluorescence were monitored over a 50 s time course with agonist addition at 17 s using a Flexstation (Molecular Devices).

IC50 (Human Th2 cells): < 100 nM
Structure (SMILES): Cc1c(Cc2cc3ccccc3cc2S(C)(=O)=O)c2cc(F)ccc2n1CC(=O)O [Compound 3, {5-Fluoro-3-[(3-methanesulfonylnaphthalen-2-yl)methyl]-2-methylindol-1-yl}-acetic acid]

IC50 (Human Th2 cells): < 100 nM
Structure (SMILES): Cc1c(Cc2ccccc2S(=O)(=O)c2ccccc2)c2cc(F)ccc2n1CC(=O)O [Compound 2, (3-{[2-(Benzenesulfonyl)phenyl]methyl}-5-fluoro-2-methylindol-1-yl)-acetic acid]

IC50 (Human Th2 cells): < 100 nM
Structure (SMILES): Cc1c(Cc2ccc3ccccc3n2)c2cc(F)ccc2n1CC(=O)O [Compound 1, (5-Fluoro-2-methyl-3-quinolin-2-ylmethyl-indol-1-yl)-acetic acid]
duration of effect on nasal symptom score after the last treatment ([1]; Group A, on placebo after 8 days of drug and three week washout): more than 4 weeks
reduction in total nasal symptom score compared to placebo ([1]; after 2 days of dosing): 23%
reduction in total eye symptom score compared to placebo ([1]; after 2 days of dosing): 45%
reduction in total nasal symptom score compared to placebo ([1]; after 8 days of dosing): 37%
reduction in total eye symptom score compared to placebo ([1]; after 8 days of dosing): 61%
reduction in Total Nasal Symptom Score (0-6 hr) ([1]; remaining 22 days after the last dose): 36%
reduction in Total Nasal Symptom Score (0-6 hr) ([1]; remaining 28 days after the last dose): 38%
median reduction in IgE at endpoint (serum IgE; after 4 weeks of dosing, p=0.033 vs placebo, Wilcoxon test): −17.0 IU/mL
reduction in serum IgE (serum IgE; after treatment for 4 weeks, FIG. 3): 41%

IC50 (Human Th2 cells): 204 ± 160 nM
Structure (SMILES): Cc1c(S(=O)(=O)c2ccc(Cl)cc2)c2cc(F)ccc2n1CC(=O)O [[5-Fluoro-3-(4-chloro-benzenesulfonyl)-2-methyl-indol-1-yl]-acetic acid, reference compound]

Structure (SMILES): CCCCC[C@H](O)/C=C/[C@H]1C(=O)C[C@H](O)[C@@H]1C/C=C\CCCC(=O)O [PGD2, prostaglandin D2, reference compound]
effect on apoptosis of Th2 cells (Human Th2 cells; absence of IL-2, 16 hrs): anti-apoptotic effect
EC50 (CRTH2 receptor): 2.4 ± 0.5 nM

IC50 (Human Th2 cells): < 100 nM
Structure (SMILES): Cc1c(Cc2cccnc2S(=O)(=O)c2ccccc2)c2cc(F)ccc2n1CC(=O)O [Compound 4, (3-{[2-(Benzenesulfonyl)pyridin-3-yl]methyl}-5-fluoro-2-methylindol-1-yl)-acetic acid]

From US20110124683A1, “Use of CRTH2 Antagonist Compounds” (Oxagen Limited, priority 2007, published 2011)
